In US20260308145A1, “CDK2 INHIBITORS AND METHODS OF USING SAME” (Shenzhen lonova Life Science Co., Ltd., priority 2023, published 2026):

Experiments:
Type in all cases: biochemical
CDK1/cyclinB1 = biological target: T1, CDK1/cyclinB1 (Homo sapiens, UniProt P06493); assay: Cyclin-dependent kinase activity assay (continuous ATP coupling assay), CDK1/cyclinB1; conditions: CDK1/cyclinB1 10 nM, ATP 200 μM, Histone1 copeptide 100 μM, 15 min preincubation, pH 7.5, 1% DMSO
T1 construct: purchased Carna Biosciences 04-102
How it was run: (§1)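 PK/LDH-coupled continuous assay, ATP at each kinase's Km, Tris pH 7.5 with 1% DMSO final; enzyme preincubated 15 min with compound (10 μM to 0.05 nM, 1:3), NADH fluorescence decrease (ex 340/em 460) gave velocities. IC50 by 4-variable fit; Ki by quadratic/Morrison fit.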

CDK6/cyclinD3 = biological target: T2, CDK6/cyclinD3 (Homo sapiens, UniProt Q00534); assay: Cyclin-dependent kinase activity assay (continuous ATP coupling assay), CDK6/cyclinD3; conditions: CDK6/cyclinD3 25 nM, ATP 500 μM, Rb copeptide 500 μM, 15 min preincubation, pH 7.5, 1% DMSO
T2 construct: purchased Carna Biosciences 04-107
How it was run: as §1

CDK2/cyclinE1 = biological target: T3, CDK2/cyclinE1 (Homo sapiens, UniProt P24941); assay: Cyclin-dependent kinase activity assay (continuous ATP coupling assay), CDK2/cyclinE1; conditions: CDK2/cyclinE1 5 nM, ATP 300 μM, Rb copeptide 100 μM, 15 min preincubation, pH 7.5, 1% DMSO
T3 construct: purchased Carna Biosciences 04-165
How it was run: as §1

CDK4/cyclinD3 = biological target: T4, CDK4/cyclinD3 (Homo sapiens, UniProt P11802); assay: Cyclin-dependent kinase activity assay (continuous ATP coupling assay), CDK4/cyclinD3; conditions: CDK4/cyclinD3 60 nM, ATP 500 μM, Rb copeptide 500 μM, 15 min preincubation, pH 7.5, 1% DMSO
T4 construct: purchased Carna Biosciences 04-105
How it was run: as §1

T1 sequence (P06493 whole entry): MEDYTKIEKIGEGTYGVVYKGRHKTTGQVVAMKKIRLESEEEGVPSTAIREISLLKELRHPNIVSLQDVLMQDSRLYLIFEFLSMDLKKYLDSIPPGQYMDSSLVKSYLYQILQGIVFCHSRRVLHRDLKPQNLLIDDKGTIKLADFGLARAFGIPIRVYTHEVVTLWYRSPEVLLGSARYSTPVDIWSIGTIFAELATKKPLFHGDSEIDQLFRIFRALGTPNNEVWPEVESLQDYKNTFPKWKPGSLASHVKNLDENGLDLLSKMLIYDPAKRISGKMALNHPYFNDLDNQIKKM
T1 sequence (P14635 whole entry partner): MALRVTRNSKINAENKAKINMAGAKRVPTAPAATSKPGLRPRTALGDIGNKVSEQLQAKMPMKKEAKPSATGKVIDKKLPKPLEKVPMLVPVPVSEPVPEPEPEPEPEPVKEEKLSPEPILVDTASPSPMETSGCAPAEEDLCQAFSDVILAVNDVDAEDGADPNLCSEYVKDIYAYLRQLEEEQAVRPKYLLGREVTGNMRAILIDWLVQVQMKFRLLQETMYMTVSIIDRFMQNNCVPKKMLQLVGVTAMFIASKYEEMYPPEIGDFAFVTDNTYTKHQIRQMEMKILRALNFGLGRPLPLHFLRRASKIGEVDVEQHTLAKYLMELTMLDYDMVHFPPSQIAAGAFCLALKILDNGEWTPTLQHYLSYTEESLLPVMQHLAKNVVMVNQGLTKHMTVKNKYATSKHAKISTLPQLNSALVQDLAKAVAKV
T2 sequence (Q00534 whole entry): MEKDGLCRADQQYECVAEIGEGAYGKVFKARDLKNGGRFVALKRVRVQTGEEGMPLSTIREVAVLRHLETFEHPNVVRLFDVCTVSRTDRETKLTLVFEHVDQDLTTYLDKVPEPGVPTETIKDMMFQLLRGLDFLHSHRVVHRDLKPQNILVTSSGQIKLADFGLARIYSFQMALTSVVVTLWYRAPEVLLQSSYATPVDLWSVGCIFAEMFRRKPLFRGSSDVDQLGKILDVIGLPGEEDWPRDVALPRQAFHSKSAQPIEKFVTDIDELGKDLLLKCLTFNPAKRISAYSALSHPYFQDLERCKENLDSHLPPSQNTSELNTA
T2 sequence (P30281 whole entry partner): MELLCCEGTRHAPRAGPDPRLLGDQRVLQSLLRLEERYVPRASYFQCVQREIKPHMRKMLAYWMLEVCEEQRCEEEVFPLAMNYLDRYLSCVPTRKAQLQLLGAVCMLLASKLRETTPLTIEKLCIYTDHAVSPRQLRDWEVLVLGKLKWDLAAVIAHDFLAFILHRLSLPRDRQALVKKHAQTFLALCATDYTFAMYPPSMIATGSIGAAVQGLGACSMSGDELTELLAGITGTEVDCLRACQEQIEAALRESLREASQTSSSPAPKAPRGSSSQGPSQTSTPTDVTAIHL
T4 sequence (P11802 whole entry): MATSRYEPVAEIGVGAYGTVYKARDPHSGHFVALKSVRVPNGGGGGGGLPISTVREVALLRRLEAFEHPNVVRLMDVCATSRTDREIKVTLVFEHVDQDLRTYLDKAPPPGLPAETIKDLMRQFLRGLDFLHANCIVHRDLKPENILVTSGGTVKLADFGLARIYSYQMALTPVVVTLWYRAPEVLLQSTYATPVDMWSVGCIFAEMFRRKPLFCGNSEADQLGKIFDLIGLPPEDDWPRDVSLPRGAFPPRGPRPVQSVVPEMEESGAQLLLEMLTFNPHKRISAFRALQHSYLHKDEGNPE
T4 sequence (P30281 whole entry partner): as the sequence (P30281 whole entry partner) above

| Compound | IC50 (CDK1/cyclinB1) [µM] | IC50 (CDK6/cyclinD3) [µM] | IC50 (CDK2/cyclinE1) [µM] | IC50 (CDK4/cyclinD3) [µM] |
| --- | --- | --- | --- | --- |
| CNS(=O)(=O)c1ccc(Nc2ncc(C(F)(F)F)c(-n3cc([C@H]4C[C@@](C)(O)C4)cn3)n2)cc1 (single isomer, unassigned) [Example 105, 4-((4-(4-((1r,3r)-3-hydroxy-3-methylcyclobutyl)-1H-pyrazol-1-yl)-5-(trifluoromethyl)pyrimidin-2-yl)amino)-N-methylbenzenesulfonamide] | 0.01 to 0.1 | 0.01 to 0.1 | 0.01 to 0.1 | 0.01 to 0.1 |
| O=S(=O)(NCCO)c1ccc(Nc2ncc(C(F)(F)F)c(-n3cccn3)n2)cc1F [Example 123] | ≥ 0.1 | ≥ 0.1 | 0.01 to 0.1 | ≥ 0.1 |
| CNS(=O)(=O)c1ccc(Nc2ncc(Br)c(-n3cc(CC(C)(C)O)cn3)n2)cc1 [Example 68] | 0.01 to 0.1 | 0.01 to 0.1 | ≤ 0.01 | 0.01 to 0.1 |
| CNS(=O)(=O)c1ccc(Nc2ncc(C(F)(F)F)c(-n3cc(-c4ccoc4)cn3)n2)cc1 [Example 86] | ≥ 0.1 | ≥ 0.1 | 0.01 to 0.1 | ≥ 0.1 |
| O=S(=O)(NCCOC1CC1)c1ccc(Nc2ncc(C(F)(F)F)c(-n3cccn3)n2)cc1 [Example 129] | ≥ 0.1 | ≥ 0.1 | ≥ 0.1 | ≥ 0.1 |
| CNS(=O)(=O)c1ccc(Nc2ncc(C(F)(F)F)c(-n3cc(C4CCN(C)CC4)cn3)n2)cc1 [Example 80, N-methyl-4-[[4-[4-(1-methyl-4-piperidyl)pyrazol-1-yl]-5-(trifluoromethyl)pyrimidin-2-yl]amino]benzene sulfonamide] | 0.01 to 0.1 | 0.01 to 0.1 | ≤ 0.01 | 0.01 to 0.1 |
| CS(=O)(=O)Nc1cccc(Nc2ncc(C(F)(F)F)c(-n3cccn3)n2)c1 [Example 121] | ≥ 0.1 | ≥ 0.1 | 0.01 to 0.1 | ≥ 0.1 |
| CNS(=O)(=O)c1ccc(Nc2ncc(C(F)(F)F)c(-n3cc([C@@H]4CCNC4)cn3)n2)cc1 [Example 94, (S)—N-methyl-4-((4-(4-(pyrrolidin-3-yl)-1H-pyrazol-1-yl)-5-(trifluoromethyl)pyrimidin-2-yl)amino)benzenesulfonamide] | 0.01 to 0.1 | ≥ 0.1 | ≤ 0.01 | 0.01 to 0.1 |
| CNS(=O)(=O)c1ccc(Nc2ncc(C(F)(F)F)c(-n3cc([C@@H]4CCC[C@H]4O)cn3)n2)cc1 (single isomer, unassigned) [Example 74] | ≥ 0.1 | ≥ 0.1 | 0.01 to 0.1 | 0.01 to 0.1 |
| CC(C)(O)CCc1cnn(-c2nc(NC3CCN(S(C)(=O)=O)CC3)ncc2C(F)(F)F)c1 [Example 109] | ≥ 0.1 | 0.01 to 0.1 | 0.01 to 0.1 | 0.01 to 0.1 |
| [2H]C([2H])([2H])NS(=O)(=O)c1ccc(Nc2ncc(C(F)(F)F)c(-n3cc(CCO)cn3)n2)cc1 [Example 10] | 0.01 to 0.1 | 0.01 to 0.1 | ≤ 0.01 | 0.01 to 0.1 |
| CNS(=O)(=O)c1ccc(Nc2ncc(C#N)c(-n3cc(CC(C)(C)O)cn3)n2)cc1 [Example 64] | ≥ 0.1 | 0.01 to 0.1 | ≤ 0.01 | 0.01 to 0.1 |
| CNS(=O)(=O)c1ccc(Nc2ncc(C(F)(F)F)c(-n3nccc3C3CC3)n2)cc1 [Example 57] | ≥ 0.1 | ≥ 0.1 | 0.01 to 0.1 | ≥ 0.1 |
| CCS(=O)(=O)N1C2CCC1CC(Nc1ncc(C(F)(F)F)c(-n3cccn3)n1)C2 (stereo not drawn) [Example 31] | ≥ 0.1 | ≥ 0.1 | ≥ 0.1 | ≥ 0.1 |
| CC(C)(CO)NS(=O)(=O)c1ccc(Nc2ncc(C(F)(F)F)c(-n3cccn3)n2)cc1 [Example 134] | ≥ 0.1 | ≥ 0.1 | ≤ 0.01 | ≥ 0.1 |
| CC(C)(O)CNS(=O)(=O)c1ccc(Nc2ncc(C(F)(F)F)c(-n3cccn3)n2)cc1 [Example 111] | ≥ 0.1 | ≥ 0.1 | ≤ 0.01 | ≥ 0.1 |
| NS(=O)(=O)c1ccc(Nc2ncc(C(F)(F)F)c(-n3cccn3)n2)c(F)c1 [Example 28] | ≥ 0.1 | ≥ 0.1 | 0.01 to 0.1 | ≥ 0.1 |
| CNS(=O)(=O)c1ccc(Nc2ncc(C(F)(F)F)c(-n3cc(N4CCNCC4)cn3)n2)cc1 [Example 85] | 0.01 to 0.1 | ≥ 0.1 | ≤ 0.01 | 0.01 to 0.1 |
| O=S1(=O)NCc2cc(Nc3ncc(C(F)(F)F)c(-n4cccn4)n3)ccc21 [Example 42, 1,1-dioxo-N-[4-pyrazol-1-yl-5-(trifluoromethyl)pyrimidin-2-yl]-2,3-dihydro-1,2-benzothiazol-5-amine] | ≥ 0.1 | ≥ 0.1 | ≥ 0.1 | ≥ 0.1 |
| CNS(=O)(=O)c1ccc(Nc2ncc(C(F)(F)F)c(-n3cc(F)cn3)n2)cc1 [Example 45] | ≥ 0.1 | ≥ 0.1 | 0.01 to 0.1 | ≥ 0.1 |

| Compound | IC50 (CDK1/cyclinB1) [µM] | IC50 (CDK6/cyclinD3) [µM] | IC50 (CDK2/cyclinE1) [µM] | IC50 (CDK4/cyclinD3) [µM] |
| --- | --- | --- | --- | --- |
| O=S(=O)(NCCO)c1ccc(Nc2ncc(F)c(-n3cccn3)n2)cc1 [Example 115] | ≥ 0.1 | ≥ 0.1 | 0.01 to 0.1 | ≥ 0.1 |
| Cc1cc(Nc2ncc(C(F)(F)F)c(-n3cccn3)n2)ccc1S(=O)(=O)NCCO [Example 125] | ≥ 0.1 | ≥ 0.1 | 0.01 to 0.1 | ≥ 0.1 |
| FC(F)(F)c1cnc(Nc2ccc(S(F)(F)(F)(F)F)cc2)nc1-n1cccn1 [Example 34] | ≥ 0.1 | ≥ 0.1 | ≥ 0.1 | ≥ 0.1 |
| CNS(=O)(=O)c1ccc(Nc2ncc(C(F)(F)F)c(-n3cccn3)n2)c(F)c1 [Example 27] | ≥ 0.1 | ≥ 0.1 | ≥ 0.1 | ≥ 0.1 |
| CNS(=O)(=O)c1ccc(Nc2ncc(C(F)(F)F)c(-n3cc([C@H]4C[C@](C)(O)C4)cn3)n2)cc1 (single isomer, unassigned) [Example 104, 4-((4-(4-((1s,3s)-3-hydroxy-3-methylcyclobutyl)-1H-pyrazol-1-yl)-5-(trifluoromethyl)pyrimidin-2-yl)amino)-N-methylbenzenesulfonamide] | ≥ 0.1 | ≥ 0.1 | 0.01 to 0.1 | 0.01 to 0.1 |
| [2H]C([2H])([2H])NS(=O)(=O)c1ccc(Nc2ncc(C(F)(F)F)c(-n3cccn3)n2)cc1 [Example 17] | ≥ 0.1 | ≥ 0.1 | ≤ 0.01 | ≥ 0.1 |
| CNS(=O)(=O)c1ccc(Nc2ncc(C(F)(F)F)c(-n3cc(N4CCN(C)CC4)cn3)n2)cc1 [Example 83] | ≥ 0.1 | ≥ 0.1 | ≤ 0.01 | ≥ 0.1 |
| O=S(=O)(NCCCO)c1ccc(Nc2ncc(C(F)(F)F)c(-n3cccn3)n2)cc1 [Example 112] | ≥ 0.1 | ≥ 0.1 | ≤ 0.01 | ≥ 0.1 |
| CNS(=O)(=O)c1ccc(Nc2ncc(C(F)(F)F)c(-n3cc(C[C@H](C)O)cn3)n2)cc1 (single isomer, unassigned) [Example 6] | 0.01 to 0.1 | 0.01 to 0.1 | ≤ 0.01 | 0.01 to 0.1 |
| CNS(=O)(=O)c1ccc(Nc2ncc(Cl)c(-n3cccn3)n2)cc1 [Example 24] | ≥ 0.1 | ≥ 0.1 | 0.01 to 0.1 | ≥ 0.1 |
| CNS(=O)(=O)c1ccc(Nc2ncc(C(F)(F)F)c(-n3cc(C4CCOC4)cn3)n2)cc1 (single isomer, unassigned) [Example 89] | ≥ 0.1 | 0.01 to 0.1 | ≤ 0.01 | 0.01 to 0.1 |
| CNS(=O)(=O)c1cccc(Nc2ncc(C(F)(F)F)c(-n3cccn3)n2)c1 [Example 122] | ≥ 0.1 | ≥ 0.1 | ≥ 0.1 | ≥ 0.1 |
| CC(C)(O)Cc1cnn(-c2nc(N[C@H]3CCOC[C@@H]3O)ncc2C(F)(F)F)c1 (single isomer, unassigned) [Example 9] | ≥ 0.1 | ≥ 0.1 | ≥ 0.1 | ≥ 0.1 |
| O=C(O)CNS(=O)(=O)c1ccc(Nc2ncc(C(F)(F)F)c(-n3cccn3)n2)cc1 [Example 138, ((4-((4-(1H-pyrazol-1-yl)-5-(trifluoromethyl)pyrimidin-2-yl)amino)phenyl)sulfonyl)glycine] | ≥ 0.1 | ≥ 0.1 | ≤ 0.01 | ≥ 0.1 |
| CNS(=O)(=O)c1ccc(Nc2ncc(C(F)(F)F)c(-n3cc(C4CC4)cn3)n2)cc1 [Example 50] | ≥ 0.1 | 0.01 to 0.1 | ≤ 0.01 | 0.01 to 0.1 |
| CNS(=O)(=O)c1ccc(Nc2ncc(C(F)(F)F)c(-n3cc(CC(C)C)cn3)n2)cc1 [Example 48] | ≥ 0.1 | 0.01 to 0.1 | 0.01 to 0.1 | ≤ 0.01 |
| CNS(=O)(=O)c1ccc(Nc2ncc(C(F)(F)F)c(-n3cc(C4CN(S(C)(=O)=O)C4)cn3)n2)cc1 [Example 98] | ≥ 0.1 | ≥ 0.1 | 0.01 to 0.1 | ≥ 0.1 |
| Cc1cnc(Nc2ccc(S(=O)(=O)NCCO)cc2)nc1-n1cccn1 [Example 114] | ≥ 0.1 | ≥ 0.1 | 0.01 to 0.1 | ≥ 0.1 |
| O=S(=O)(NCCO)c1ccc(Nc2nccc(-n3cccn3)n2)cc1 [Example 118] | ≥ 0.1 | ≥ 0.1 | ≥ 0.1 | ≥ 0.1 |
